The values below are quoted from earlier work in US20050282773A1, “Modified polysaccharides in combination with anti-cancer drugs for enhanced treatment of cancer” (Pro-Pharmaceuticals, Inc., priority 2004, published 2005).

One data set has as its system L-1 sarcoma cells. Conditions: in vivo.
A further data set relates to B16 melanoma cells. Conditions: in vivo.

For the compound `O=C[C@H](O)[C@@H](O)[C@@H](O)[C@H](O)CO` [D-galactose], in the data set with L-1 sarcoma cells, the “liver metastasis of L-1 sarcoma cells” value was “inhibited”.

In the case of `CC(=O)N[C@H]1[C@H](O[C@H]2[C@@H](O)[C@@H](CO)O[C@@H](O[C@H]3[C@H](O)[C@@H](O)C(O)O[C@@H]3CO)[C@@H]2O)O[C@H](CO)[C@@H](O)[C@@H]1O[C@@H]1O[C@H](CO)[C@H](O)[C@H](O)[C@H]1O` (stereo partly shown) [lacto-N-tetrose], in the data set on B16 melanoma cells, the “metastasis of B16 melanoma cells” value was “inhibit”.

With `CO[C@H]1O[C@H](CO)[C@@H](O[C@@H]2O[C@H](CO)[C@H](O)[C@H](O)[C@H]2O)[C@H](O)[C@H]1O` [methyl-α-D-lactoside], the “metastasis of B16 melanoma cells” value with B16 melanoma cells is “inhibit”.

arabinogalactose: in the data set on L-1 sarcoma cells, the “liver metastasis of L-1 sarcoma cells” value is recorded as “inhibited”.
